Data published in patent US8048892B2, “Azaquinolone based compounds exhibiting prolyl hydroxylase inhibitory activity, compositions, and uses thereof” (Amgen Inc., priority 2006, dated 2011).
Counter-ions that a name gives are not always drawn.

Target: HIF PHD2 (Homo sapiens, UniProt Q9GZT9)
Experiment: PHD2 inhibition assay (TR-FRET, VCB-Eu detection of hydroxylated P564-HIF1α peptide)
Type: biochemical
Details: 2 nM PHD2, 100 nM P564-HIF1α peptide, 0.25 μM 2-oxoglutarate
Procedure, shortened: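 Human PHD2 (2 nM final) preincubated 1 h at room temperature with compound and 100 μM FeCl2 in pH 6 MES buffer, 5% DMSO final. Reaction with 100 nM biotinylated P564-HIF1α peptide, 2 mM ascorbate and 0.25 μM 2-oxoglutarate for 1 h, stopped with succinate. Hydroxylation read by TR-FRET (VCB-Eu/streptavidin-APC, 655/615 nm); IC50 from 4-parameter fit of percent of control.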

Chain of HIF PHD2 (Q9GZT9 whole entry): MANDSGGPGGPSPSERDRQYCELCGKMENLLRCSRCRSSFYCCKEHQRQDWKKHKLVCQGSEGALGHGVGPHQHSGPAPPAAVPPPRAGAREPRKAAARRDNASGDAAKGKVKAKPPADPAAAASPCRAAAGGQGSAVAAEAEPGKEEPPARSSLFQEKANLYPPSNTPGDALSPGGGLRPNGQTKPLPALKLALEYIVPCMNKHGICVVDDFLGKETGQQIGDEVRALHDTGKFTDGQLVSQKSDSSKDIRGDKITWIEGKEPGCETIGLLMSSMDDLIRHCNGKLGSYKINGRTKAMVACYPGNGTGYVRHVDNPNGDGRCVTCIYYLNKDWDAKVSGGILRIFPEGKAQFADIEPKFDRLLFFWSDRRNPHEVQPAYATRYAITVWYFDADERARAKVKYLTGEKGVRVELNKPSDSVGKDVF

Row | Structure (SMILES) | IC50 [nM]
1 | Cn1c(=O)c(C(=O)NCC(=O)O)c(O)c2cccnc21 [Example 76, 2-(4-Hydroxy-1-methyl-2-oxo-1,2-dihydro-1,8-naphthyridine-3-carboxamido)acetic acid] | 50 to 100
2 | Cn1c(=O)c(C(=O)NCC(=O)O)c(O)c2cc(F)cnc21 [Example 77, 2-(6-Fluoro-4-hydroxy-1-methyl-2-oxo-1,2-dihydro-1,8-naphthyridine-3-carboxamido)acetic acid] | 50 to 100
3 | Cn1c(=O)c(C(=O)NCC(=O)O)c(O)c2cc(C#CC(C)(C)C)cnc21 [Example 78, N-((6-(3,3-Dimethyl-1-butyn-1-yl)-4-hydroxy-1-methyl-2-oxo-1,2-dihydro-1,8-naphthyridin-3-yl)carbonyl)glycine] | < 50
4 | CCc1cnc2c(c1)c(O)c(C(=O)NCC(=O)O)c(=O)n2C [Example 79, 2-(6-Ethyl-4-hydroxy-1-methyl-2-oxo-1,2-dihydro-1,8-naphthyridine-3-carboxamido)acetic acid] | < 50
5 | C#Cc1cnc2c(c1)c(O)c(C(=O)NCC(=O)O)c(=O)n2C [Example 80, 2-(6-Ethynyl-4-hydroxy-1-methyl-2-oxo-1,2-dihydro-1,8-naphthyridine-3-carboxamido)acetic acid] | 100 to 500
6 | Cn1c(=O)c(C(=O)NCC(=O)O)c(O)c2cc(CCC3CC3)cnc21 [Example 81, 2-(6-(2-Cyclopropylethyl)-4-hydroxy-1-methyl-2-oxo-1,2-dihydro-1,8-naphthyridine-3-carboxamido)acetic acid] | < 50
7 | Cn1c(=O)c(C(=O)NCC(=O)O)c(O)c2cc(C#CC3CC3)cnc21 [Example 82, 2-(6-(2-Cyclopropylethynyl)-4-hydroxy-1-methyl-2-oxo-1,2-dihydro-1,8-naphthyridine-3-carboxamido)acetic acid] | < 50
8 | CCCc1cnc2c(c1)c(O)c(C(=O)NCC(=O)O)c(=O)n2C [Example 83, 2-(4-Hydroxy-1-methyl-2-oxo-6-propyl-1,2-dihydro-1,8-naphthyridine-3-carboxamido)acetic acid] | 50 to 100
9 | CC#Cc1cnc2c(c1)c(O)c(C(=O)NCC(=O)O)c(=O)n2C [Example 84, 2-(4-Hydroxy-1-methyl-2-oxo-6-(prop-1-ynyl)-1,2-dihydro-1,8-naphthyridine-3-carboxamido)acetic acid] | 100 to 500
10 | Cn1c(=O)c(C(=O)NCC(=O)O)c(O)c2cc(C#N)cnc21 [Example 85, N-((6-Cyano-4-hydroxy-1-methyl-2-oxo-1,2-dihydro-1,8-naphthyridin-3-yl)carbonyl)glycine] | < 50
11 | Cn1c(=O)c(C(=O)NCC(=O)O)c(O)c2ccc(C(F)(F)F)nc21 [Example 86, 2-(4-Hydroxy-1-methyl-2-oxo-7-(trifluoromethyl)-1,2-dihydro-1,8-naphthyridine-3-carboxamido)acetic acid] | < 50
12 | O=C(O)CNC(=O)c1c(O)c2ccc(C(F)(F)F)nc2[nH]c1=O [Example 87, 2-(4-Hydroxy-2-oxo-7-(trifluoromethyl)-1,2-dihydro-1,8-naphthyridine-3-carboxamido)acetic acid] | < 50
13 | C[C@H](NC(=O)c1c(O)c2ccc(C(F)(F)F)nc2[nH]c1=O)C(=O)O [Example 88, (S)-2-(4-Hydroxy-2-oxo-7-(trifluoromethyl)-1,2-dihydro-1,8-naphthyridine-3-carboxamido)propanoic acid] | 100 to 500
14 | C[C@H](NC(=O)c1c(O)c2ccc(C(F)(F)F)nc2n(C)c1=O)C(=O)O [Example 89, (S)-2-(4-Hydroxy-1-methyl-2-oxo-7-(trifluoromethyl)-1,2-dihydro-1,8-naphthyridine-3-carboxamido)propanoic acid] | 50 to 100
15 | Cn1c(=O)c(C(=O)NCC(=O)O)c(O)c2cc(-c3ccccc3)c(C(F)(F)F)nc21 [Example 90, 2-(4-Hydroxy-1-methyl-2-oxo-6-phenyl-7-(trifluoromethyl)-1,2-dihydro-1,8-naphthyridine-3-carboxamido)acetic acid] | < 50
16 | Cn1c(=O)c(C(=O)NCC(=O)O)c(O)c2cc(-c3cccnc3)c(C(F)(F)F)nc21 [Example 91, 2-(4-Hydroxy-1-methyl-2-oxo-6-(pyridin-3-yl)-7-(trifluoromethyl)-1,2-dihydro-1,8-naphthyridine-3-carboxamido)acetic acid] | < 50
17 | Cc1ncccc1-c1cc2c(O)c(C(=O)NCC(=O)O)c(=O)n(C)c2nc1C(F)(F)F [Example 92, 2-(4-Hydroxy-1-methyl-6-(2-methylpyridin-3-yl)-2-oxo-7-(trifluoromethyl)-1,2-dihydro-1,8-naphthyridine-3-carboxamido)acetic acid] | < 50
18 | Cn1c(=O)c(C(=O)NCC(=O)O)c(O)c2cc(C3CC3)c(C(F)(F)F)nc21 [Example 93, 2-(6-cyclopropyl-4-hydroxy-1-methyl-2-oxo-7-(trifluoromethyl)-1,2-dihydro-1,8-naphthyridine-3-carboxamido)acetic acid] | 50 to 100

Row | Structure (SMILES) | IC50 [nM]
19 | Cn1c(=O)c(C(=O)NCC(=O)O)c(O)c2cc(Br)c(C(F)(F)F)nc21 [Example 94, 2-(6-Bromo-4-hydroxy-1-methyl-2-oxo-7-(trifluoromethyl)-1,2-dihydro-1,8-naphthyridine-3-carboxamido)acetic acid] | < 50
20 | Cn1c(=O)c(C(=O)NCC(=O)O)c(O)c2cc(C3CCCCC3)c(C(F)(F)F)nc21 [Example 95, 2-(6-Cyclohexyl-4-hydroxy-1-methyl-2-oxo-7-(trifluoromethyl)-1,2-dihydro-1,8-naphthyridine-3-carboxamido)acetic acid] | 100 to 500
21 | Cn1c(=O)c(C(=O)NCC(=O)O)c(O)c2cc(C3=CCCCC3)c(C(F)(F)F)nc21 [Example 96, 2-(6-Cyclohexenyl-4-hydroxy-1-methyl-2-oxo-7-(trifluoromethyl)-1,2-dihydro-1,8-naphthyridine-3-carboxamido)acetic acid] | < 50
22 | Cn1c(=O)c(C(=O)NCC(=O)O)c(O)c2cc(C#CC3CC3)c(C(F)(F)F)nc21 [Example 97, 2-(6-(2-Cyclopropylethynyl)-4-hydroxy-1-methyl-2-oxo-7-(trifluoromethyl)-1,2-dihydro-1,8-naphthyridine-3-carboxamido)acetic acid] | < 50
23 | Cn1c(=O)c(C(=O)NCC(=O)O)c(O)c2cc(C3CCCC3)c(C(F)(F)F)nc21 [Example 98, 2-(6-Cyclopentyl-4-hydroxy-1-methyl-2-oxo-7-(trifluoromethyl)-1,2-dihydro-1,8-naphthyridine-3-carboxamido)acetic acid] | 100 to 500
24 | Cn1c(=O)c(C(=O)NCC(=O)O)c(O)c2cc(-c3ccccc3)ncc21 [Example 105, N-((4-Hydroxy-1-methyl-2-oxo-6-phenyl-1,2-dihydro-1,7-naphthyridin-3-yl)carbonyl)glycine] | < 50
25 | Cc1ccccc1-c1cc2c(O)c(C(=O)NCC(=O)O)c(=O)n(C)c2cn1 [Example 106, N-((4-Hydroxy-1-methyl-6-(2-methylphenyl)-2-oxo-1,2-dihydro-1,7-naphthyridin-3-yl)carbonyl)glycine] | < 50
26 | Cn1c(=O)c(C(=O)NCC(=O)O)c(O)c2cc(-c3cccnc3)ncc21 [Example 107, N-((4-Hydroxy-1-methyl-2-oxo-6-(3-pyridinyl)-1,2-dihydro-1,7-naphthyridin-3-yl)carbonyl)glycine] | 50 to 100
27 | Cn1c(=O)c(C(=O)NCC(=O)O)c(O)c2cc(-c3ccc4c(c3)CCO4)ncc21 [Example 108, N-((6-(2,3-Dihydro-1-benzofuran-5-yl)-4-hydroxy-1-methyl-2-oxo-1,2-dihydro-1,7-naphthyridin-3-yl)carbonyl)glycine] | < 50
28 | Cn1c(=O)c(C(=O)NCC(=O)O)c(O)c2cc(-c3cccs3)ncc21 [Example 109, N-((4-Hydroxy-1-methyl-2-oxo-6-(2-thienyl)-1,2-dihydro-1,7-naphthyridin-3-yl)carbonyl)glycine] | < 50
29 | Cn1c(=O)c(C(=O)NCC(=O)O)c(O)c2cc(-c3ccc(OC(F)(F)F)cc3)ncc21 [Example 110, 2-(4-Hydroxy-1-methyl-2-oxo-6-(4-(trifluoromethoxy)phenyl)-1,2-dihydro-1,7-naphthyridine-3-carboxamido)acetic acid, Trifluoroacetic acid salt.] | < 50
30 | Cn1c(=O)c(C(=O)NCC(=O)O)c(O)c2cc(Cl)ncc21 [Example 111, 2-(6-Chloro-4-hydroxy-1-methyl-2-oxo-1,2-dihydro-1,7-naphthyridine-3-carboxamido)acetic acid] | < 50
31 | Cn1c(=O)c(C(=O)NCC(=O)O)c(O)c2ccncc21 [Example 112, N-((4-Hydroxy-1-methyl-2-oxo-1,2-dihydro-1,7-naphthyridin-3-yl)carbonyl)glycine] | 50 to 100
32 | CC(C)c1cc2c(O)c(C(=O)NCC(=O)O)c(=O)n(C)c2cn1 [Example 113, N-((4-Hydroxy-1-methyl-6-(1-methylethyl)-2-oxo-1,2-dihydro-1,7-naphthyridin-3-yl)carbonyl)glycine] | < 50
33 | Cn1c(=O)c(C(=O)NCC(=O)O)c(O)c2cc(C3=CCNCC3)ncc21 [Example 114, 2-(4-Hydroxy-1-methyl-2-oxo-6-(1,2,3,6-tetrahydropyridin-4-yl)-1,2-dihydro-1,7-naphthyridine-3-carboxamido)acetic acid, Trifluoroacetic acid salt] | 50 to 100
34 | Cn1c(=O)c(C(=O)NCC(=O)O)c(O)c2cc(C3CCNCC3)ncc21 [Example 115, 2-(4-Hydroxy-1-methyl-2-oxo-6-(piperidin-4-yl)-1,2-dihydro-1,7-naphthyridine-3-carboxamido)acetic acid, Trifluoroacetic acid salt] | 50 to 100
35 | CN1CC=C(c2cc3c(O)c(C(=O)NCC(=O)O)c(=O)n(C)c3cn2)CC1 [Example 116, 2-(4-Hydroxy-1-methyl-6-(1-methyl-1,2,3,6-tetrahydropyridin-4-yl)-2-oxo-1,2-dihydro-1,7-naphthyridine-3-carboxamido)acetic acid, Trifluoroacetic acid salt] | < 50
